Earlier results in US20150196506A1, “CHEWING GUM FORMULATIONS COMPRISING DAPOXETINE AND TADALAFIL” (Sanovell Ilac Sanayi Ve Ticaret Anonim Sirketi, priority 2012, published 2015).

How the values were obtained:
[1] = similarly poorly dissolved in gastric juice
[2] = following oral administration

For `CN1CC(=O)N2[C@H](c3ccc4c(c3)OCO4)c3[nH]c4ccccc4c3C[C@@H]2C1=O` [Tadalafil, (6R-trans)-6-(1,3-benzodioxol-5-yl)-2,3,6,7,12,12a-hexahydro-2-methyl-pyrazino [1′,2′:1,6] pyrido[3,4-b]indole-1,4-dione], the solubility in water [1] is listed as “poorly soluble in water”.
For `CN(C)[C@@H](CCOc1cccc2ccccc12)c1ccccc1` [dapoxetine], the “binding to plasma proteins” value [2] is listed as “almost completely”.
